Test results reported in publication PMC8385015, “Tumour-on-chip microfluidic platform for assessment of drug pharmacokinetics and treatment response” (Communications Biology, 2021).
Values joined by “and” are separate entries in the source; they are usually repeats but may differ in a detail not shown here. Equal entries are not always repeated.

What was measured:
Type in all cases: cell-based
γH2AX = γH2AX immunofluorescence in SW620 spheroids, microfluidic chip; details: SN38 monotherapy, day 7
Excerpt: SN38 is a TOP1 inhibitor that that prevents relegation of the DNA strand by binding to TOP1–DNA complex and causes DNA double strand breaks (DSBs). Those DNA DSB lesions trigger activation of the ATM kinase for effective repair. Inhibition of ATM and consequent accumulation of unrepaired breaks leading to increased cell death provides the rationale for developing this combination for cancer treatment. […] Here, we tested whether different schedules lead to different activation of pharmacodynamic markers that are associated with DNA DSB damage, apoptosis and cell proliferation. The γ-H2AX associated foci accumulate in cells exposed to DBS inducing agents[18],[19]. These foci can be detected by immunostaining to determine their, size and morphology. However, spheroid imaging using a 20x objective on a CV7000 confocal microscope cannot accurately explore foci morphology, so we introduced customised ImageJ macros (described in “Methods” section, Supplementary Fig. 2 and Supplementary Method 1) to quantitate positive cells within a spheroid. The same method was applied to quantitate CC3-positive (apoptotic) cells, while normalisation by spheroid area was not required for Ki67, as this biomarker is present in all proliferating cells. […]
Supplementary Figure 2. Fluorescence image processing, per biomarker, using Fiji ImageJ custom-made macros […]

SW620 spheroids [1] = assay: SW620 spheroid viability (CellTiterGlo), static plate format; details: 6 days
Protocol: In microfluidic Ibidi chip, tumour spheroids were exposed to eight different concentrations in a gradient fashion mimicking the in vivo pharmacokinetic profile and treatment schedule for both drugs. c Spheroids were imaged in situ (plate/chip) at the end of the treatment and their volumes calculated from average radius deducted from min/max Feret. d Spheroid viability was measured at the end of the treatment by CellTiterGlo assay (d). N = 6 per condition from two independent experiments. Box-plots show median (centre line); box limits are 25th to 75th percentile; whiskers represent min and max values. Statistical analysis was performed using 1-way ANOVA.
From the same experimental setup, we explored SW620 spheroid viability at 6 days for static and microfluidic setup (Fig. 2d).
Compounds were dispensed in each well using an automated HP D300 digital dispenser (Tecan, UK).
Spheroid viability assessment used a metabolic method (CellTiterGlo 3D, G9681, Promega) by measuring luminescence units expressed by individually recovered spheroids. […] CellTiterGlo vial was allowed to thaw (1 h, room temperature) and 25 µL reagent were added to each spheroid well. […] Luminescence levels were measured using a SpectraMax i3X (Molecular Devices, USA).

SW620 spheroids [2] = assay: SW620 spheroid viability (CellTiterGlo 3D), microfluidic Ibidi chip
Excerpt: The tested schedules were designed to recapitulate mouse plasma PK profiles from similar schedules used in in vivo efficacy studies (Table 1) with a desire to reverse translate in vivo data and to evaluate the predictive ability of our microfluidic chip setup. […] We investigated changes in the spheroid volume, as well as viability using the CellTiterGlo assay. To evaluate whether our system could also be used to monitor treatment impact on pharmacodynamic biomarkers, we collected individual spheroids at the end of the treatment period and performed immunofluorescence analysis for γH2AX (DNA double strand break marker), cleaved caspase 3 (apoptosis) and Ki67 (proliferation marker), as detailed in “Methods” section and Supplementary Fig. 2. Each treatment condition was repeated at least three times and measurements for each condition were pooled from at least six spheroid replicates.
To mimic in vivo anti-cancer drugs PK profile at a constant flow rate, an 8-point concentration scale for specific durations was used. Each drug was delivered at a specific concentration, for a specific amount of time, consistent with the average concentration for the same durations in vivo, on a 24-h step schedule.
Each compound concentration/timing represented an average of the corresponding in vivo plasma values, measured by mass spectrometry (Supplementary Methods 4 and 5).
Spheroid viability assessment used a metabolic method (CellTiterGlo 3D, G9681, Promega) by measuring luminescence units expressed by individually recovered spheroids. Each chip bottom polymer film was cut using a scalpel and spheroids were individually collected and transferred in 25 µL media to the wells of a half area 96-well plate (1/2 AreaPlate-96, white, 6002290, Perkin-Elmer). CellTiterGlo vial was allowed to thaw (1 h, room temperature) and 25 µL reagent were added to each spheroid well. Plates were lidded with black sealing tape (Nunc, 731-0750, VWR) and placed on and orbital shaker for 40′. Luminescence levels were measured using a SpectraMax i3X (Molecular Devices, USA).

CCc1c2c(nc3ccc(O)cc13)-c1cc3c(c(=O)n1C2)COC(=O)[C@]3(O)CC [SN38]
change in γH2AX compared to the control group (γH2AX): did not observe a significant change | spheroid viability (SW620 spheroids [1]; Static plate format, CellTiterGlo, replicates (Fig 2d raw data), unit not given): 36.02 and 31.7 and 39.52 | reduction in spheroid viability (SW620 spheroids [1]; static, continuous exposure): ~ 60% | spheroid viability (SW620 spheroids [2]; Microfluidic Ibidi chip, 6 days, CellTiterGlo, replicates (Fig 2d raw data), unit not given): 62.9 and 51.36 and 50.85 and 54.46 and 62.33 and 64.07 (2×) | spheroid viability (SW620 spheroids [2]; microfluidic chip, SN38 mono (1d), day 7, single spheroids): 6192690 RLU and 5479774 RLU and 8813513 RLU and 7953995 RLU and 8522809 RLU and 9260029 RLU and 5533818 RLU and 5710166 RLU | reduction in viability (SW620 spheroids [2]; microfluidic, dosed to mimic in vivo PK profile, 6 days): ~ 40%
